The source of these data is US7342089B2, “Cyclic peptides for treatment for cachexia” (Palatin Technologies, Inc., priority 2002, dated 2008).

As a reminder, the Ki is the equilibrium dissociation constant of an inhibitor or competing ligand from its target. By EC50 is commonly meant the concentration at which the effect is half-maximal.

Positions of bridges follow the written chain, without caps; N, C: chain ends. Non-standard residues stand in square brackets, D forms with d. Residues, ends and D or L forms follow the SMILES beside them. 2Nal = N[C@@H](Cc1ccc2ccccc2c1)C(=O)O; d2Nal = N[C@H](Cc1ccc2ccccc2c1)C(=O)O; Nle = CCCC[C@H](N)C(=O)O

The target of one experiment is T1, hMC4-R (HEK-293 cells) (Homo sapiens, UniProt P32245).
T1 construct: expressed in transfected cells; host or cells: HEK-293
Briefly: cAMP assay for agonist/antagonist status and functional antagonism, MC4-R. It counts as cell-based. A general note: Changes in cAMP serve as a functional read-out for many G protein-coupled receptors.

Experiment [1] has as its target T2, MC1-R (B-16 mouse melanoma cells) (Mus musculus, UniProt Q01727). Nature of the experiment: Competitive inhibition binding assay using [I125]-NDP-α-MSH, MC1-R. Conditions: B-16 mouse melanoma cell membranes. Here is the method:
Each assay is conducted in triplicate.

A further experiment has as its system male Sprague-Dawley rats. Nature of the experiment: IV food intake and body weight change. Format: in vivo, rat. Conditions: 1 mg/kg IV, 24 hour period (FIG. 1). Here is the method:
Change in food intake and body weight is evaluated for selected peptides. Male Sprague-Dawley rats are obtained from Taconic (Germantown, N.Y.). Animals are individually housed in conventional plexiglass hanging cages and maintained on a controlled 12 hour on/off light cycle. Water and powdered (LabDiet, 5P00 Prolab RMH 3000) or pelleted (Harlan Teklad 2018 18% Protein Rodent Diet) food is provided ad libitum. For 1 week before treatment, 24-hour food intake and body weight change is recorded to assess a baseline for the group during vehicle treatment. The rats are dosed IV or IP with vehicle or selected peptides (0.5-3 mg/kg). The changes in body weight and food intake for the 24 hour period after dosing are determined. The changes in body weight and food intake for the 48 hour and 72 hour periods after dosing are also measured to determined reversal of changes in body weight and food intake effects back to baseline levels.
Briefly, male Sprague-Dawley rats (300-350 g) were individually housed in shoe box cages with a 12 hr light/dark period. Food intake and body weights were monitored for 24 hours prior to the start of the study. Rats were randomized by body weight and then dosed IV just before lights-off with the compound of Example 12 or the same volume of vehicle. A pre-weighed amount of food was provided and food intake was determined at 2, 4, 20 and 24 hours. […]

The target of experiment [2] is T2, MC1-R (B-16 mouse melanoma cells). Briefly: cAMP assay for agonist/antagonist status, MC1-R. It counts as cell-based. Here is the method:
Cells are incubated with the test peptides in the presence or absence of α-MSH for 1 hour at 37° C. cAMP levels in the cell lysates are measured using the EIA kit (Amersham). Data analysis and EC50 values are determined using nonlinear regression analysis with Prism Graph-Pad software.
The agonist/antagonist status with respect to MC1-R, MC4-R and MC5-R of certain peptides of the invention is determined. Antagonistic activity is determined by measuring the inhibition of α-MSH-induced or NDP-α-MSH-induced cAMP levels following exposure to the peptides as in the preceding descriptions.

In a further experiment the target is T3, hMC4-R (Homo sapiens, UniProt P32245).
T3 construct: expressed in transfected cells; host or cells: HEK-293
Briefly: Competitive inhibition binding assay using [I125]-NDP-α-MSH, hMC4-R. Conditions: HEK-293 membranes, read-out: Ki MC4-R.

Another experiment deals with T4, hMC3-R (Homo sapiens, UniProt P41968).
T4 construct: expressed in transfected cells; host or cells: HEK-293
Briefly: Competitive inhibition binding assay using [I125]-NDP-α-MSH, hMC3-R. Conditions: HEK-293 membranes, read-out: Ki MC3-R.

A further experiment concerns the target T5, hMC5-R (Homo sapiens, UniProt P33032).
T5 construct: expressed in transfected cells; host or cells: HEK-293
Nature of the experiment: Competitive inhibition binding assay using [I125]-NDP-α-MSH, hMC5-R. Conditions: HEK-293 membranes, read-out: Ki MC5-R.

For a further experiment, the system named is rats. Briefly: ICV feeding studies. Particulars: lowest value of multiple tests, parentheses = decrease. It counts as in vivo, rat. Here is the method: Change in food intake and body weight is evaluated for selected peptides. Rats with indwelling intracerebroventricular cannulas (ICV rats) are obtained from Hilltop Lab Animals, Inc. (Scottdale, Pa.). Animals are individually housed in conventional plexiglass hanging cages and maintained on a controlled 12 hour on/off light cycle. Water and powdered (LabDiet, 5P00 Prolab RMH 3000) or pelleted (Harlan Teklad 2018 18% Protein Rodent Diet) food is provided ad libitum. For 1 week before treatment, 24-hour food intake and body weight change is recorded to assess a baseline for the group during vehicle treatment. The rats are dosed ICV with vehicle or selected cyclic peptides (0.3-3 nmol). The changes in body weight and food intake for the 24 hour period after dosing are determined. The changes in body weight and food intake for the 48 hour and 72 hour periods after dosing are also measured to determine reversal of changes in body weight and food intake effects back to baseline levels.
A series of ICV feeding studies were conducted on rats. All animals were dosed on the first day with saline ICV, and given a pre-weighed food bowl with food weight recorded at 2 and 21 hours post-ICV injection. On day 2, animals were randomized based on the 21 hour food consumption, with animals eliminated due to low food consumption or food spills. […] Food weights were again recorded at 2, 4, 21 and 24 hours post-icv injection. In most instances, multiple different tests were conducted which each group containing between 8 and 12 members; the lowest value is shown below. Values are shown as percent increase (decrease) in aggregate food intake. “ND” means no test was conducted at that dose level.

The target in another experiment is T6, hMC3-R (HEK-293 cells) (Homo sapiens, UniProt P41968).
T6 construct: expressed in transfected cells; host or cells: HEK-293
Nature of the experiment: cAMP assay for agonist/antagonist status and functional antagonism, MC3-R. Format: cell-based. Conditions: cAMP assay.

T2 sequence (Q01727 whole entry): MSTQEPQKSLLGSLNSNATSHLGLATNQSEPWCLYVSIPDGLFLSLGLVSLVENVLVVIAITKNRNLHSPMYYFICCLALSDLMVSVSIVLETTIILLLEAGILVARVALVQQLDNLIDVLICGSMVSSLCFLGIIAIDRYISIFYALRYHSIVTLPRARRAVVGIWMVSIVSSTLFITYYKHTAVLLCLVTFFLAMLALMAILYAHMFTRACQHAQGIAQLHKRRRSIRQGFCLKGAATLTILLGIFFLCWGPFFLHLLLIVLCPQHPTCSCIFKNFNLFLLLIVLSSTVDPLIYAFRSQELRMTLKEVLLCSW
T1 sequence (P32245 whole entry): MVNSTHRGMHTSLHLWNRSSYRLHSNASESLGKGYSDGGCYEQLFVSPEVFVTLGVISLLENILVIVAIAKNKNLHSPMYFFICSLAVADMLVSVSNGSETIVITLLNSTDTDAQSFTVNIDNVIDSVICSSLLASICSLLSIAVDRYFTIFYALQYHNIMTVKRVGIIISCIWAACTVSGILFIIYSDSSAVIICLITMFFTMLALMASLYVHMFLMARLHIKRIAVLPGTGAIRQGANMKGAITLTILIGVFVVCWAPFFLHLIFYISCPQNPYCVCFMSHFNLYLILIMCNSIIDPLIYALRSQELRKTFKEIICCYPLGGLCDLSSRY
T5 sequence (P33032 whole entry): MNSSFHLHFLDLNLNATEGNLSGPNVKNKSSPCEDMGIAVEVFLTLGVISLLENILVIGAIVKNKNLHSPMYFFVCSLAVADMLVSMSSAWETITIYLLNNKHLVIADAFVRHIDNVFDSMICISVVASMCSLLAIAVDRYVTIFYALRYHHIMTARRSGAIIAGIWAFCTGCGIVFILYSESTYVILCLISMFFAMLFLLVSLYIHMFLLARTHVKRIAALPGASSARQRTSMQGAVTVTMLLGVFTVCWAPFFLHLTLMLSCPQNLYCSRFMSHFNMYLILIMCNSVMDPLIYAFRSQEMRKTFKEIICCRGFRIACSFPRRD
T6 sequence (P41968 whole entry): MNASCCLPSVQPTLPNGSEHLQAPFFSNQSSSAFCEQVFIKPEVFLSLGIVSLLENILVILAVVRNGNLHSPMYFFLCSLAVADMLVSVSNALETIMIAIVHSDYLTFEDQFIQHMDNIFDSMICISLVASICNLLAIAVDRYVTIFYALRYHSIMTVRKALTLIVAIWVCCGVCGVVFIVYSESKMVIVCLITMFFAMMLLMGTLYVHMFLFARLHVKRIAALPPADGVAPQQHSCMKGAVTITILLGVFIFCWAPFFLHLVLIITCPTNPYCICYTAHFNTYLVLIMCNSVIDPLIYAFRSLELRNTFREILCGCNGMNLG
T4 sequence (P41968 whole entry): as above
T3 sequence (P32245 whole entry): as the sequence (P32245 whole entry) above
Description for hMC3-R (HEK-293 cells): Assay for neutral antagonist.
Experimental details are similar to the analysis for agonistic activity and are described above. Briefly, cells are pre-incubated for 30 minutes with the test peptides at concentrations between 0.5 nM and 5000 nM. […] For Schild's analysis, the interactions are studied using at least 3 concentrations of the peptides, separated by a log unit, over a full range of the agonist (0.005-5000 nM). cAMP levels is measured in the cell lysates after appropriate dilution. Nonlinear regression analysis with the Prism Graph-Pad software is used for Schild's analysis and to obtain EC50 values. pA2 values are derived from the Schild's plot.
Description for hMC4-R (HEK-293 cells): Confluent HEK-293 cells over-expressing MC4-R are detached by enzyme free cell suspension buffer. […] The cells are plated in a 96 well plates at a density of 0.5×10^5 cells per well and pre-incubated for 30 minutes. The cells are then challenged with the test peptides dissolved in dimethylsulfoxide (DMSO) at a concentration range of 0.05-5000 nM in a total assay volume of 200 μL for 1 hour at 37° C. The concentration of DMSO is always held at 1% in the assay mixture. […] At the end of the incubation period the cells are disrupted by the addition of 50 μL lysis buffer from the cAMP EIA kit (Amersham). Complete rupture of the cells is ensured by pipetting the cells up and down multiple times. cAMP levels in the cell lysates are measured after appropriate dilution using the EIA kit (Amersham) method. Data analysis and EC50 values are determined by using nonlinear regression analysis with the Prism Graph-Pad software. […] Peptides with a response ratio of less than 0.1 are evaluated for antagonistic activity.
Briefly, cells are pre-incubated for 30 minutes with the test peptides at concentrations between 0.5 nM and 5000 nM. […] For Schild's analysis, the interactions are studied using at least 3 concentrations of the peptides, separated by a log unit, over a full range of the agonist (0.005-5000 nM). cAMP levels is measured in the cell lysates after appropriate dilution. Nonlinear regression analysis with the Prism Graph-Pad software is used for Schild's analysis and to obtain EC50 values. pA2 values are derived from the Schild's plot.

For `CCCC[C@H](NC(C)=O)C(=O)N[C@H]1CC(=O)NCCCC[C@@H](C(=O)O)NC(=O)[C@H](Cc2ccc3ccccc3c2)NC(=O)[C@H](CCCNC(=N)N)NC(=O)[C@@H](Cc2ccc3ccccc3c2)NC(=O)[C@H](Cc2c[nH]cn2)NC1=O` [Example 12, Ac-Nle-cyclo(-Asp-His-D-Nal 2-Arg-Nal 2-Lys)-OH] (Ac-[Nle]DH[d2Nal]R[2Nal]K-OH; lactam 2-7), at hMC4-R (HEK-293 cells) (cAMP assay), the “agonist/antagonist status as to MC4-R” value is on record as “antagonist”. Moreover, on hMC4-R (HEK-293 cells) (functional antagonism, Schild's analysis vs NDP-α-MSH, read-out: pA2 value as to MC4-R (converted)), the Kb is 7.59 nM. Moreover, the Ki in [1] was 0.2 nM; at hMC4-R it was 0.02 nM; on hMC3-R, 0.3 nM; at hMC5-R, 0.2 nM. Further, the “cumulative food intake compared to vehicle” value with male Sprague-Dawley rats is recorded as “increase in food intake”. Moreover, the “agonist/antagonist status as to MC1-R” value in [2] is reported as “partial agonist”. Further, the EC50 in experiment [2] (read-out: EC50 as to MC1-R) is 5 nM. The “Percent Increase (Decrease) In Aggregate Food Intake After ICV Administration of Peptide Compared to Vehicle (Saline)” value with rats (0.3 nmol) was found to be 36%; in the experiment on rats (1 nmol), 48%. The “agonist/antagonist status as to MC3-R” value on hMC3-R (HEK-293 cells) was “antagonist”.
